# Data taken from patent US20170097335A1, “Methods for Diagnosing Impaired Absorption of Amino Acids, Monosaccharides and Fatty Acids” (The Texas A&M University System, priority 2015, published 2017).
# Legend:
# [1] = Conversion of D- into L-phenylalanine; type: in vivo; details: observed in the pig
# Excerpt: This allows for an estimation of the potential disturbance of the digestion and splanchnic extraction measurements that also involve L-phenylalanine stable isotopes.
# [2] = Ratio of enterally to intravenously provided L-allo-isoleucine isotopologues in blood samples, pig model; type: in vivo
# Description: (§1) Both human and animal models were used for measuring protein absorption in the intestinal walls. The subjects were prepared with indwelling catheters to enable blood sampling. Stable isotopes of amino acids are obtained and made into sterile and pyrogen-free solutions. These isotopes may comprise L-allo-[^2H10, ^15N]-isoleucine, L-allo-[^13C6]-isoleucine, D-1-[^13C]phenylalanine, D-C^3C6]phenylalanine, D-[^2H5]-phenylalanine, D-[2-^2H]phenylalanine. A blood sample is taken or drawn from each subject for a measurement of the natural background. A bolus or continuous infusion of the stable isotope of the amino acid may be used. The labeled amino acid is administered orally to each subject and another isotope of the amino acid nutrient is administered intravenously to the same subject at the same time or within 8 hours. Blood samples are taken or drawn from each subject in the time window of about one to several hours. The labeled amino acids enrichments in each sample are analyzed by Mass Spectrometry. Results from the Mass Spectrometry are applied to a non-compartmental model for analysis and ratio determination. The metabolic phenotype is produced based on the measured amino acids production, consumption and metabolism.
# [3] = Protein absorption in the intestinal walls: ratio of orally to intravenously provided isotopologue in blood, healthy volunteers; type: in vivo, human; details: FIG. 1
# Description: as §1
structure (smiles),measurement,setting,value
N[C@H](Cc1ccccc1)C(=O)O [D-phenylalanine],conversion rate of D- into L-phenylalanine,[1],10%
[13CH3][13CH2][13C@@H]([13CH3])[13C@H](N)[13C](=O)O [L-allo-[^13C6]-isoleucine],ratio of enterally administered over intravenously administered isotopologue,"[2]; continuously fed pig (4 hours), over intravenously administered L-allo-[^2H10, ^15M-isoleucine, FIG. 4",about 0.8
same,ratio of enterally administered over intravenously administered isotopologue,"[2]; pigs with bolus feeding for 4 hours, over intravenously administered allo-Isoleucine[^2H10, ^15N](M9+M11), FIG. 5",about 0.8
CC[C@@H](C)[C@H](N)C(=O)O [L-allo-isoleucine],absorption ratio of orally provided isotopologue over intravenously provided isotopologue,[3],about 0.8
